Measured values taken from ChEMBL document CHEMBL1201862, “PubChem BioAssay data set” (2004).
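Grown in 96-well plates, cells were treated for 48 hours with each compound at five concentrations. Insufficient inhibition: endpoint recorded as highest concentration tested. GI50 = concentration required for 50% inhibition of growth.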 Calls of active or inactive are those of the source. Cut-off read from the data, not from the text of the source: active = GI50 up to about 1.1 µM and inactive = higher.

Key:
Test in all cases: DTP human tumour cell line panel, 48 h
[1] = system: U-251
[2] = system: SK-MEL-28
[3] = system: HOP-92
[4] = system: SN12C
[5] = system: MOLT-4
[6] = system: TK-10
[7] = system: RPMI-8226
[8] = system: 786-0
[9] = system: LOX IMVI
[10] = system: SK-MEL-2
[11] = system: COLO 205
[12] = system: Malme-3M
[13] = system: UACC-62
[14] = system: HCT-15
[15] = system: UACC-257
[16] = system: SK-OV-3
[17] = system: SK-MEL-5
[18] = system: KM12
[19] = system: CCRF-CEM
[20] = system: HL-60

SMILES	GI50 [1]	GI50 [2]	GI50 [3]	GI50 [4]	GI50 [5]	GI50 [6]	GI50 [7]	GI50 [8]	GI50 [9]	GI50 [10]	GI50 [11]	GI50 [12]	GI50 [13]	GI50 [14]	GI50 [15]	GI50 [16]	GI50 [17]	GI50 [18]	GI50 [19]	GI50 [20]
Cc1ccc(NC(=O)/C(=N/NC(=O)C[N+](C)(C)C)c2nc3ccccc3nc2O)cc1	27.4 µM (inactive)	> 100 µM (inactive)	> 100 µM (inactive)	> 100 µM (inactive)	> 100 µM (inactive)	> 100 µM (inactive)	> 100 µM (inactive)	> 100 µM (inactive)	51.4 µM (inactive)	> 100 µM (inactive)	76.9 µM (inactive)	> 100 µM (inactive)	> 100 µM (inactive)	81.1 µM	> 100 µM (inactive)	> 100 µM (inactive)	> 100 µM (inactive)	–	–	–
CC(=O)OCC1OC(Sc2ccccn2)C=CC1OC(C)=O (stereo not drawn)	> 100 µM (inactive)	> 100 µM (inactive)	> 100 µM (inactive)	> 100 µM (inactive)	> 100 µM (inactive)	> 100 µM (inactive)	–	> 100 µM (inactive)	> 100 µM (inactive)	–	> 100 µM (inactive)	> 100 µM (inactive)	> 100 µM (inactive)	–	> 100 µM (inactive)	> 100 µM (inactive)	> 100 µM (inactive)	> 100 µM (inactive)	> 100 µM (inactive)	> 100 µM (inactive)
CCCCc1ccc2[n+](c1)C(C(=O)OCC)=PC2 (stereo not drawn)	71.4 µM (inactive)	> 100 µM (inactive)	> 100 µM (inactive)	> 100 µM (inactive)	37.5 µM (inactive)	> 100 µM (inactive)	28.2 µM (inactive)	72.1 µM (inactive)	–	–	> 100 µM (inactive)	> 100 µM (inactive)	> 100 µM (inactive)	39.6 µM	> 100 µM (inactive)	> 100 µM (inactive)	> 100 µM (inactive)	> 100 µM (inactive)	42.4 µM (inactive)	40.7 µM (inactive)
Cc1cc(C)c(N[S+]([O-])c2ccc(Cl)cc2)c(C)c1 (stereo not drawn)	> 100 µM (inactive)	> 100 µM (inactive)	68.7 µM (inactive)	> 100 µM (inactive)	> 100 µM (inactive)	> 100 µM (inactive)	> 100 µM (inactive)	> 100 µM (inactive)	–	–	> 100 µM (inactive)	> 100 µM (inactive)	–	> 100 µM	> 100 µM (inactive)	–	–	> 100 µM (inactive)	> 100 µM (inactive)	> 100 µM (inactive)
Cc1cc2c(cc1C)C(=O)C1(C2)Cc2cc3c(cc2C1=O)CCC3 (stereo not drawn)	> 100 µM (inactive)	> 100 µM (inactive)	> 100 µM (inactive)	> 100 µM (inactive)	> 100 µM (inactive)	> 100 µM (inactive)	> 100 µM (inactive)	> 100 µM (inactive)	–	> 100 µM (inactive)	> 100 µM (inactive)	> 100 µM (inactive)	> 100 µM (inactive)	> 100 µM	> 100 µM (inactive)	> 100 µM (inactive)	> 100 µM (inactive)	> 100 µM (inactive)	> 100 µM (inactive)	> 100 µM (inactive)
O=C1C2ON3c4ccccc4C(=O)C3(c3ccccc3)C2C(=O)N1c1ccccc1 (stereo not drawn)	> 100 µM (inactive)	> 100 µM (inactive)	> 100 µM (inactive)	> 100 µM (inactive)	> 100 µM (inactive)	–	> 100 µM (inactive)	> 100 µM (inactive)	–	–	> 100 µM (inactive)	> 100 µM (inactive)	> 100 µM (inactive)	> 100 µM	> 100 µM (inactive)	> 100 µM (inactive)	> 100 µM (inactive)	–	> 100 µM (inactive)	> 100 µM (inactive)
O=C(COc1ccc(Cl)c(Cl)c1)Nc1ccc[n+](Cc2ccc(S(=O)(=O)F)c(Cl)c2)c1	> 100 µM (inactive)	> 100 µM (inactive)	> 100 µM (inactive)	98.4 µM (inactive)	25.4 µM (inactive)	> 100 µM (inactive)	1.02 µM (active)	> 100 µM (inactive)	–	> 100 µM (inactive)	> 100 µM (inactive)	51.2 µM (inactive)	> 100 µM (inactive)	> 100 µM	> 100 µM (inactive)	> 100 µM (inactive)	> 100 µM (inactive)	> 100 µM (inactive)	–	> 100 µM (inactive)
C=CC1=C(C)/C(=C/C2=NC(=C\c3[nH]c(CC4NC(=O)C(C)/C4=C\C)c(C)c3CCC(=O)O)/C(CC(=O)O)=C2C)NC1=O (stereo not drawn)	> 100 µM (inactive)	> 100 µM (inactive)	70 µM (inactive)	> 100 µM (inactive)	> 100 µM (inactive)	> 100 µM (inactive)	–	> 100 µM (inactive)	> 100 µM (inactive)	> 100 µM (inactive)	> 100 µM (inactive)	> 100 µM (inactive)	> 100 µM (inactive)	> 100 µM	> 100 µM (inactive)	> 100 µM (inactive)	–	> 100 µM (inactive)	> 100 µM (inactive)	> 100 µM (inactive)
